A word on the IC50: it is the midpoint of a concentration-inhibition curve.

One data set addresses T1, EGFR (Homo sapiens, UniProt P00533).
T1 construct: endogenous in cells; host or cells: DU145
The data set can be described thus: Western blot of EGFR activation by EGF in DU145 cells. The data set is classed as cell-based. The conditions noted are these: 4 μM DIDS or 25 μM H2DIDS; DU145, 100 ng/ml EGF 20 min. How it is done:
(§1) Western blot analysis: Cells were grown to ˜70% confluency prior to treatment. Cells were serum-starved in serum-free media for 30 minutes prior to treatment in complete media or serum-free media for the indicated times. Cell lysates were collected in Laemmli (125 mM Tris, 4% SDS, 0.01% bromophenol blue, 30% sucrose) containing 0.5% β-mercaptoethanol and boiled ˜8 minutes. Primary antibodies include: phospho-c-Met (Y1234/1235), phospho-Akt (S473), pEGFR […], pIGF-IRβ (Y1135/1136) (Cell Signaling Technology; Beverly, Mass.); α-actin (Sigma-Aldrich), c-Met (C-28) (Life Technologies). Secondary antibodies include: horseradish peroxidase-conjugated anti-rabbit and anti-mouse (GE Healthcare; Pittsburgh, Pa.). ECL 2 was used for chemiluminescent detection (Thermo Scientific; Rockford, Ill.). Densitometry was calculated using ImageJ (NIH).
For orientation: A western blot detects proteins with antibodies after separation by electrophoresis.

Data set [1] concerns matrix metalloproteinase release. Conditions: cited from earlier work.
The test system of data set [2] is DU145 cells. The data set can be described thus: Invasion through Matrigel. The data set is classed as cell-based. The conditions noted are these: indicated concentrations; 33 ng/mL HGF; Matrigel 1:5. As for the experimental part: For invasion (FIGS. 4C and 4D), wounded cells were overlaid with Matrigel diluted 1:5 in serum-free media; n=3.
Wound healing and invasion: DU145 cells were grown to ˜100% confluency prior to wounding with the IncuCyte™ WoundMaker™ (Essen Bioscience; Ann Arbor, Mich.) and washed once with complete media. For invasion, cells were covered with Matrigel diluted 1:5 in serum-free RPMI following wounding. […] Images were taken every 4 hours with the IncuCyte™ ZOOM imaging system (Essen Bioscience). Quadruplicate replicates were used in each experiment. Data are presented as percent wound density ±standard error of the mean (S.E.M.).

Data set [3] deals with interaction of human immunodeficiency virus type-1 (HIV-1) with CD4 T-cell receptors. Conditions: cited from earlier work.
A further data set concerns the target wild-type c-Met (Homo sapiens, UniProt P08581). The data set is described as follows: Phosphorylation inhibition assay (Z′-LYTE Kinase Assay-Tyr6 Peptide), wild-type c-Met. The data set is classed as biochemical. Conditions: cell-free kinase assay, 200 μM ATP; read-out: IC50, activation of wild-type c-Met. As for the experimental part: (§2) Western blot was used to analyze pMet expression. […] Western blot was used to analyze the indicated proteins.
(§3) Phosphorylation inhibition assay: Z′-LYTE™ Kinase Assay-Tyr6 Peptide kit (Invitrogen) was used to assess the ability of tested compounds to inhibit c-Met phosphorylation. […] After 1 hour incubation at room temperature, 10 μl development solution containing site-specific protease was added to each well. Incubation was continued for 1 hour. The reaction was then stopped, and the fluorescent signal ratio of 445 nm (coumarin)/520 nm (fluorescein) was determined on a plate reader (BioTek FLx800™), which reflects the peptide substrate cleavage status and/or the kinase inhibitory activity in the reaction. […] The IC50 value for each compound was calculated by nonlinear regression of log concentration versus % c-Met phosphorylation ±S.E.M., implemented in GraphPad Prism version 5.0 (GraphPad Software, CA, USA).

Data set [4] concerns protein translocation across the ER membrane. The conditions noted are these: cited from earlier work.
Data set [5] in a line: Xenograft study, tolerability (body weight, clinical observation). The data set is classed as in vivo, Athymic nude mice. The source says:
Data are shown as average+S.E.M., *p<0.05.
Xenograft studies: All animal experiments were approved by the Institutional Animal Care and Use Committee, University of Louisiana at Monroe, and were handled in strict accordance with good animal practice as defined by the NIH guidelines. Athymic nude mice (Foxn1^nu/Foxn1^+, 4-5 weeks, female) were purchased from Harlan (Indianapolis, Ind.). The mice had free access to standard pellet food and water. The animals were acclimated to animal house facility conditions at a temperature of 18-25° C., with a relative humidity of 55 to 65% and a 12 h light/dark cycle, for one week prior to the experiments. MDA-MB-231/GFP human breast cancer cells were cultured and resuspended in serum-free DMEM medium (20 μl). After anesthesia, cell suspensions (1×10^6 cells/20 μl) were inoculated subcutaneously into the second mammary gland fat pad just beneath the nipple of each animal to generate orthotopic breast tumors. […] The mice were monitored by measuring tumor volume, body weight, and clinical observation. Tumor volume (V) was calculated by V=L/2×W^2, where L was the length and W was the width of tumors. The results are presented as average ±S.E.M. Differences among various treatment groups were determined by the analysis of variance (ANOVA) followed by Dunnett's test using PASW statistics version 18. […]

The target of another data set is T2, IGFR (Homo sapiens, UniProt P08069).
T2 construct: endogenous in cells; host or cells: DU145
The data set is described as follows: Western blot of IGFR activation by IGF in DU145 cells. The data set is classed as cell-based. The conditions noted are these: 4 μM DIDS or 25 μM H2DIDS; DU145, 100 ng/ml IGF 20 min. How it is done:
as §1

In data set [6] the test system is DU145 cells. The data set can be described thus: Scattering assay. The data set is classed as cell-based. The conditions noted are these: 4 μM DIDS or 25 μM H2DIDS. How it is done: Cells were fixed and stained for actin. Representative images are shown. […] Data are shown as mean±S.E.M.; n=3.
Cells were fixed and stained for actin. Representative images are shown.
Scattering assay: DU145 cells were grown to ˜50% confluency. […] Cells were fixed with 4% paraformaldehyde and stained with Oregon Green 488 phalloidin (Invitrogen; Carlsbad, Calif.). Images were acquired on an Eclipse TE300 inverted microscope (Nikon; Tokyo, Japan) with NIS Elements version 4.13.04 software. Presented images were taken using a 10× objective.

A further data set relates to Cells. The data set can be described thus: 2D proliferation (Cell Titer Blue). The data set is classed as cell-based. Conditions: 24-72 hours. As for the experimental part: A TO timepoint was also measured. For each timepoint, cells were exposed to Cell Titer Blue reagent (Promega) for 1 hour at 37° C. 5% CO2. Experiments were performed with quadruplicate replicates. Fluorescence was measured using a BioTek Synergy 4 plate reader with Gen5 software.
(In general: Alamar Blue is a resazurin reagent that responds to reducing activity.)

Another data set addresses c-Met M1250T (M1268T) (Homo sapiens, UniProt P08581, M1250T). The data set can be described thus: Phosphorylation inhibition assay (Z′-LYTE Kinase Assay-Tyr6 Peptide), mutant c-Met. The data set is classed as biochemical. The conditions noted are these: cell-free kinase assay, 200 μM ATP. How it is done: as §2, §3

Molecules are shown by their SMILES.

c-Met M1250T (M1268T), sequence (P08581 956-1390 M1250T limits assumed): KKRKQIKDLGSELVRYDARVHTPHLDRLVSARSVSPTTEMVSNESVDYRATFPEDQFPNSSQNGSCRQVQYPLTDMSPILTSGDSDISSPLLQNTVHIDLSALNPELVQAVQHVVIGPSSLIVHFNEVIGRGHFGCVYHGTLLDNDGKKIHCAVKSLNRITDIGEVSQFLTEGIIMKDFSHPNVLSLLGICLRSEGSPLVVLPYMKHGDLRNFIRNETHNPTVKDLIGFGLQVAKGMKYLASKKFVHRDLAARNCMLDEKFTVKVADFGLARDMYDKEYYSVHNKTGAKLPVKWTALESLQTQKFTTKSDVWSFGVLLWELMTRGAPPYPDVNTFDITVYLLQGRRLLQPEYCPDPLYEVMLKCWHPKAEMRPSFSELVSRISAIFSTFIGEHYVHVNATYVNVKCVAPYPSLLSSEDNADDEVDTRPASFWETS
T2 sequence (P08069 31-1367): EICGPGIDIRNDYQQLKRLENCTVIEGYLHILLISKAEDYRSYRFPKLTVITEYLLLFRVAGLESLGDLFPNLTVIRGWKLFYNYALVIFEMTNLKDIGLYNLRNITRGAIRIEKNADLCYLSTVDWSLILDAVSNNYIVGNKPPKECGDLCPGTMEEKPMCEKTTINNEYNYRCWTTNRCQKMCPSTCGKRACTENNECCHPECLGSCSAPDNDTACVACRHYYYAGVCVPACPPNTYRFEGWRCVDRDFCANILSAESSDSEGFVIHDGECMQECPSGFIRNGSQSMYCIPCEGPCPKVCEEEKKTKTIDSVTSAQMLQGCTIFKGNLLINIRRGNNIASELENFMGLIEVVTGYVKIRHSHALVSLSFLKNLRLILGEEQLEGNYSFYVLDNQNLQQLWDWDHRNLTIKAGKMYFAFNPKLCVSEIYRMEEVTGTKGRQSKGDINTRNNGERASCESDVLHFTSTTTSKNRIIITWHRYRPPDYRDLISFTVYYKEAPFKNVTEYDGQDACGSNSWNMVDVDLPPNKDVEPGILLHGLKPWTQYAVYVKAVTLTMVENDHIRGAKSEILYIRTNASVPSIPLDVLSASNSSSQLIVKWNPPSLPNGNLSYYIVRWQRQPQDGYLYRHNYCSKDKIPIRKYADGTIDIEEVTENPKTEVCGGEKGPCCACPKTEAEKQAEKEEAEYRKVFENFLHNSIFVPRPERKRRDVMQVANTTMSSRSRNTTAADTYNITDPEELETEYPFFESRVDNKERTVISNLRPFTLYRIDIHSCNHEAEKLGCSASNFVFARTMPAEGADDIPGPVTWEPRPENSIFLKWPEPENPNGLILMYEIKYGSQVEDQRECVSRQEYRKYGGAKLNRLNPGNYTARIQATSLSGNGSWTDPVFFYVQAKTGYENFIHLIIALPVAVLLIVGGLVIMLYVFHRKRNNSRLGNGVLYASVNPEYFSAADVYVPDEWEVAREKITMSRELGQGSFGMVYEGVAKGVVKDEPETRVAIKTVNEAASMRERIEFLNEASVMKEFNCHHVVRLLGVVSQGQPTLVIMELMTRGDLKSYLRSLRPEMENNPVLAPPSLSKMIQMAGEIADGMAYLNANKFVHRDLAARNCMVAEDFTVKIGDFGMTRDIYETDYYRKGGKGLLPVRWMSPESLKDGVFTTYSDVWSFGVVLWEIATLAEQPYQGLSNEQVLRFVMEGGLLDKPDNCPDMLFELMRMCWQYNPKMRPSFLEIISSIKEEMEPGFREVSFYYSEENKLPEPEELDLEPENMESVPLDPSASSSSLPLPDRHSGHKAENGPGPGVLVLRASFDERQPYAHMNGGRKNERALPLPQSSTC
wild-type c-Met, sequence (P08581 25-1390): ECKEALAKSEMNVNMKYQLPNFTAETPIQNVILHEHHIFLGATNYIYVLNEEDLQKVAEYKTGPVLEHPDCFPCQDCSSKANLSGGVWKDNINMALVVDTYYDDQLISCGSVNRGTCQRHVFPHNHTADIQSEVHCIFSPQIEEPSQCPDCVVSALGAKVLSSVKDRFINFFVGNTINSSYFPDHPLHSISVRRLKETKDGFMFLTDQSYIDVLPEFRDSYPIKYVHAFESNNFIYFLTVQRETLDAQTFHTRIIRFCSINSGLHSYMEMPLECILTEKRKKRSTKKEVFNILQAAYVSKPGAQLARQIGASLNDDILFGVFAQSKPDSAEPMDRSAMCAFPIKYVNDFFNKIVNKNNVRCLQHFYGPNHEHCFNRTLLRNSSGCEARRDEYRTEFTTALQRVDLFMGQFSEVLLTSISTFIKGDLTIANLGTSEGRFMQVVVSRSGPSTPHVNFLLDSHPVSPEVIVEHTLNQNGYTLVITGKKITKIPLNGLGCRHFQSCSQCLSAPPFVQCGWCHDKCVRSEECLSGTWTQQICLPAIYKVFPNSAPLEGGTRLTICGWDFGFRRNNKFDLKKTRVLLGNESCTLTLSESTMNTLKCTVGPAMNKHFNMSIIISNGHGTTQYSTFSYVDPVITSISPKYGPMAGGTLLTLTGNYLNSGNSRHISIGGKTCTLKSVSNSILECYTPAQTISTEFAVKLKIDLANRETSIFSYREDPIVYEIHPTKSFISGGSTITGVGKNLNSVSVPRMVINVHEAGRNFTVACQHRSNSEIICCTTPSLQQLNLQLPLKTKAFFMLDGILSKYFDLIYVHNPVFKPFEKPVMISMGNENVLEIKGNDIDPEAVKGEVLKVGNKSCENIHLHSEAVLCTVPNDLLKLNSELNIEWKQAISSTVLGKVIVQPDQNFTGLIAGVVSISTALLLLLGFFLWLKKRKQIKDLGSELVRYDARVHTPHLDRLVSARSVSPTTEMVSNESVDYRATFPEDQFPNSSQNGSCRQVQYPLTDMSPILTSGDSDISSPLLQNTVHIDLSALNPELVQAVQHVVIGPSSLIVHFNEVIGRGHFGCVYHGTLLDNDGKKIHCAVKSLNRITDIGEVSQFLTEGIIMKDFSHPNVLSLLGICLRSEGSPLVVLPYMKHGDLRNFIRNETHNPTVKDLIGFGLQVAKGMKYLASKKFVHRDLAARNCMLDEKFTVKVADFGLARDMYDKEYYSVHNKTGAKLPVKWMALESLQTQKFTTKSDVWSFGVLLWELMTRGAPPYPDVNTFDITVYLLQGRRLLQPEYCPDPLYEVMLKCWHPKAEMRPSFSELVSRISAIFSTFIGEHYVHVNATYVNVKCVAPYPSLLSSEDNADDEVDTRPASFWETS
T1 sequence (P00533 25-1210): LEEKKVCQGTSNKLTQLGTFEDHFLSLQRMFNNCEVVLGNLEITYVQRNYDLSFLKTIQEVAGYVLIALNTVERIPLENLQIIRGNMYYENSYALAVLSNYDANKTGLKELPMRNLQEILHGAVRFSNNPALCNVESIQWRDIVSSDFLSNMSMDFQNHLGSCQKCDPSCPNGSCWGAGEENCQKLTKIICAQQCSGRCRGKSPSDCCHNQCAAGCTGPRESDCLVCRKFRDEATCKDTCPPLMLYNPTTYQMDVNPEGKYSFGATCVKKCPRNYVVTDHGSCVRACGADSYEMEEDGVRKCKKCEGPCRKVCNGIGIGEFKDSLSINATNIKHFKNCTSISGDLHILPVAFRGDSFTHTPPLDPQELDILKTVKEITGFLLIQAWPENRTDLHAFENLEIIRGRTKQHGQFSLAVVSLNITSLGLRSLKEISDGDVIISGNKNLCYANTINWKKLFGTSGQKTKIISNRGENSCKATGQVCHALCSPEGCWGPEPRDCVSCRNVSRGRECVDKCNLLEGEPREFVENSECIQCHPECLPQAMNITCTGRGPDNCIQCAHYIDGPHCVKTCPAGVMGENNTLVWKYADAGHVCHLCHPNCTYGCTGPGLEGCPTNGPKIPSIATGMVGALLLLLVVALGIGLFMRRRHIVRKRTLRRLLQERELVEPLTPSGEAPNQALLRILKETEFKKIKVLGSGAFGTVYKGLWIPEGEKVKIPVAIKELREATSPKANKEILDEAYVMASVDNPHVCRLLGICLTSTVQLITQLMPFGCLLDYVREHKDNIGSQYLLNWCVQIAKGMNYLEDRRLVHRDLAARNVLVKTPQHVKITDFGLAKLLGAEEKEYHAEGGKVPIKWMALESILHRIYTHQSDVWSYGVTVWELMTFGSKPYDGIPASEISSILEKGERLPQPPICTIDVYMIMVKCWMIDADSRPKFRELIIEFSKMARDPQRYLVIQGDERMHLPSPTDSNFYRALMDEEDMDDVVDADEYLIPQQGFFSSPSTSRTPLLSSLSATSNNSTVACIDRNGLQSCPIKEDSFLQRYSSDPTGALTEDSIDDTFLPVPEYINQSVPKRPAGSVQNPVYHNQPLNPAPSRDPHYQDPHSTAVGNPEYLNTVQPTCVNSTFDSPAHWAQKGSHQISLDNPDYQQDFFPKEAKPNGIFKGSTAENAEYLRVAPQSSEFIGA

For `O=S(=O)(O)c1cc(N=C=S)ccc1C=Cc1ccc(N=C=S)cc1S(=O)(=O)O` [DIDS, 4,4′-Diisothiocyanatostilbene-2,2′-disulfonic acid], the EGFR activation entry at EGFR is “do not significantly reduce”. Moreover, the “concentration inhibiting matrix metalloproteinase release” value in data set [1] is no less than 400 µM. The “HGF-induced invasion through Matrigel” value in the data set with DU145 cells [2] is listed as “inhibited HGF-induced invasion through Matrigel in a dose-dependent manner”. The “concentration preventing interaction of HIV-1 with CD4 T-cell receptors” value in [3] is reported as “low micromolar concentrations”. Further, the IC50 at wild-type c-Met was found to be 300 nM; against c-Met M1250T (M1268T) it was 370 nM. Further, the “concentration inhibiting protein translocation across the ER membrane” value in data set [4] was no less than 400 µM. Moreover, the signs of toxicity entry in data set [5] (5 mg/kg intraperitoneally, ˜2 weeks, mice) is given as “No obvious signs of toxicity”. The “body weight compared to DMSO control” value in [5] (5 mg/kg then 10 mg/kg i.p., 3×/week) is listed as “no change in body weight”. Further, the IGFR activation result on IGFR is on record as “do not significantly reduce”. Moreover, in the data set on DU145 cells [6] (33 ng/ml HGF overnight), the HGF-induced cell scattering result is given as “able to reduce HGF-induced”. Moreover, the EGF-induced cell scattering entry in the data set with DU145 cells [6] (100 ng/ml EGF overnight) is given as “not EGF-induced”. Besides, in the data set on Cells (complete media), the “proliferation in complete media in 2D assay” value is recorded as “minimal effects”. For the same molecule, in the data set on Cells (serum-free media), the “serum-free proliferation in 2D assay” value is given as “minimal effects”.

Source of the values: patent US10980765B2, “Isothiocyanatostilbenes as a novel method and product for treating cancer” (BOARD OF SUPERVISORS OF LOUISIANA STATE UNIVERSITY AND …, priority 2015, dated 2021).
